Source: ChEMBL document CHEMBL1817644, “Rational design of SAM analogues targeting SAM-II riboswitch aptamer” (Bioorg Med Chem Lett, 2011)
Activity calls are given as the source filed them. The rule behind the calls is not given here.

What was measured:
Assay type in all cases: nucleic-acid assay
[1] = tested on: Nucleic Acid; assay: Binding affinity to 2-amino purine labelled SAM2 riboswitch aptamer assessed as change in fluorescence at 5 mM to 10 mM at pH 8.3 by fluorescence binding assay
[2] = tested on: Nucleic Acid; assay: Ratio of S-adenosylmethionine Kd to compound Kd for SAM2 riboswitch aptamer
[3] = tested on: Nucleic Acid; assay: Binding affinity to SAM1 riboswitch aptamer assessed as change in heat at 0.5 mM at pH 7.5 by Isothermal titration calorimetry

SMILES	Activity [1]	Kd [1] [µM]	Ratio [2]	Activity [3]
C[S+](CC[C@H](N)C(=O)[O-])C[C@H]1O[C@@H](n2cnc3c(N)ncnc32)[C@H](O)[C@@H]1O (stereo not given in full) [ADEMETIONINE]	Active	6		
C[S+](CC[C@H](NC(=O)CNCCN)C(=O)O)C[C@H]1O[C@@H](n2cnc3c(N)ncnc32)[C@H](O)[C@@H]1O (stereo not given in full)	inactive			
C[S+](CC[C@H](NC(=O)CN)C(=O)O)C[C@H]1O[C@@H](n2cnc3c(N)ncnc32)[C@H](O)[C@@H]1O (stereo not given in full)	inactive			
CN1/C(=C\c2cc[n+](CCCC(=O)N[C@@H](CC[S+](C)C[C@H]3O[C@@H](n4cnc5c(N)ncnc54)[C@H](O)[C@@H]3O)C(=O)O)c3ccccc23)Sc2ccccc21 (stereo not given in full)	Active		2	
C[S+](CC[C@H](N)C(=O)NCCN)C[C@H]1O[C@@H](n2cnc3c(N)ncnc32)[C@H](O)[C@@H]1O (stereo not given in full)		3.1		inactive
Nc1ncnc2c1ncn2[C@@H]1O[C@H](CSCC[C@H](N)C(=O)O)[C@@H](O)[C@H]1O	inactive			
C[S+](CC[C@H](NC(=O)CCN)C(=O)O)C[C@H]1O[C@@H](n2cnc3c(N)ncnc32)[C@H](O)[C@@H]1O (stereo not given in full)	inactive			
